From PubChem BioAssay (NCI)
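Results reflect a 48-hour exposure of cells in 96-well plates to compound at five concentrations. GI50: concentration for 50% inhibition of growth. TGI: concentration producing complete growth inhibition.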

How the values were obtained:
Experiment in all cases: NCI anticancer screen, dose series, 48 h
[1] = system: SNB-19 CNS
[2] = system: T-47D breast
[3] = system: UACC-257 melanoma
[4] = system: IGROV1 ovarian
[5] = system: PC-3 prostate
[6] = system: A549 NSCLC
[7] = system: HOP-92 NSCLC
[8] = system: MDA-MB-231 breast
[9] = system: RXF 393 renal
[10] = system: NCI-H522 lung
[11] = system: SK-MEL-2 melanoma
[12] = system: SF-539 CNS
[13] = system: OVCAR-4 ovarian
[14] = system: SK-MEL-5 melanoma
[15] = system: SN12C renal
[16] = system: U251 CNS
[17] = system: 786-0 renal
[18] = system: DU-145 prostate
[19] = system: HCC-2998 colon
[20] = system: HOP-62 NSCLC
[21] = system: MALME-3M melanoma
[22] = system: OVCAR-8 ovarian
[23] = system: COLO 205 colon
[24] = system: CCRF-CEM leukemia
[25] = system: HCT-116 colon
[26] = system: SK-OV-3 ovarian
[27] = system: OVCAR-3 ovarian
[28] = system: TK-10 renal
[29] = system: UACC-62 melanoma
[30] = system: SR leukemia
[31] = system: KM12 colon
[32] = system: SF-295 CNS
[33] = system: M14 melanoma
[34] = system: SW-620 colon
[35] = system: MCF7 breast
[36] = system: UO-31 renal
[37] = system: MOLT-4 leukemia
[38] = system: HCT-15 colon
[39] = system: HL-60(TB) leukemia
[40] = system: ACHN renal
[41] = system: EKVX NSCLC
[42] = system: NCI-H460 lung
[43] = system: NCI-H226 lung
[44] = system: HS 578T breast
[45] = system: A498 renal
[46] = system: SF-268 CNS
[47] = system: LOX IMVI melanoma
[48] = system: OVCAR-5 ovarian
[49] = system: NCI-H23 lung
[50] = system: SNB-75 CNS
[51] = system: K-562 leukemia
[52] = system: CAKI-1 renal
[53] = system: BT-549 breast
[54] = system: NCI/ADR-RES ovarian
[55] = system: SK-MEL-28 melanoma
[56] = system: HT29 colon
[57] = system: MDA-MB-435

Question: What does the source list for `COc1ccc(CNc2c3ccccc3nc3ccc(OC)cc23)cc1`?
Answer: GI50 [1]: 4.14 µM; TGI [1]: 16 µM; GI50 [2]: 3.54 µM; TGI [2]: 18.9 µM; GI50 [3]: 2.15 µM; TGI [3]: 4.81 µM; GI50 [4]: 3.02 µM; TGI [4]: 11.1 µM; GI50 [5]: 2.8 µM; TGI [5]: 11.8 µM; GI50 [6]: 2.59 µM; TGI [6]: 7.46 µM; GI50 [7]: 2.17 µM; TGI [7]: 7.69 µM; GI50 [8]: 1.9 µM; TGI [8]: 4.69 µM; GI50 [9]: 1.52 µM; TGI [9]: 3.04 µM; GI50 [10]: 3.17 µM; TGI [10]: 14.3 µM; GI50 [11]: 2.37 µM; TGI [11]: 6.2 µM; GI50 [12]: 1.96 µM; TGI [12]: 4.13 µM; GI50 [13]: 2.94 µM; TGI [13]: 10.5 µM; GI50 [14]: 1.95 µM; TGI [14]: 3.87 µM; GI50 [15]: 3.31 µM; TGI [15]: 12.6 µM; GI50 [16]: 3.18 µM; TGI [16]: 11.2 µM; GI50 [17]: 2.02 µM; TGI [17]: 4.55 µM; GI50 [18]: 3.16 µM; TGI [18]: 10.9 µM; GI50 [19]: 1.85 µM; TGI [19]: 3.76 µM; GI50 [20]: 3.38 µM; TGI [20]: 15.4 µM; GI50 [21]: 1.89 µM; TGI [21]: 3.72 µM; GI50 [22]: 3.04 µM; TGI [22]: 13.5 µM; GI50 [23]: 1.76 µM; TGI [23]: 3.99 µM; GI50 [24]: 3.09 µM; TGI [24]: 13.3 µM; GI50 [25]: 2.55 µM; TGI [25]: 11.6 µM; GI50 [26]: 4.83 µM; TGI [26]: 17.2 µM; GI50 [27]: 2.61 µM; TGI [27]: 8.68 µM; GI50 [28]: 3.77 µM; TGI [28]: 13.9 µM; GI50 [29]: 1.79 µM; TGI [29]: 3.75 µM; GI50 [30]: 1.86 µM; TGI [30]: 5.81 µM; GI50 [31]: 3.3 µM; TGI [31]: 12.4 µM; GI50 [32]: 1.73 µM; TGI [32]: 4.27 µM; GI50 [33]: 1.9 µM; TGI [33]: 4.26 µM; GI50 [34]: 2.08 µM; TGI [34]: 7.22 µM; GI50 [35]: 2.11 µM; TGI [35]: 5.71 µM; GI50 [36]: 1.93 µM; TGI [36]: 9.13 µM; GI50 [37]: 2.75 µM; TGI [37]: 10.3 µM; GI50 [38]: 2.27 µM; TGI [38]: 6.18 µM; GI50 [39]: 2.15 µM; TGI [39]: 4.73 µM; GI50 [40]: 2.72 µM; TGI [40]: 10.1 µM; GI50 [41]: 3.15 µM; TGI [41]: 12.2 µM; GI50 [42]: 2.46 µM; TGI [42]: 6.41 µM; GI50 [43]: 2.54 µM; TGI [43]: 9.14 µM; GI50 [44]: 2.85 µM; TGI [44]: 8.68 µM; GI50 [45]: 1.69 µM; TGI [45]: 3.33 µM; GI50 [46]: 3.75 µM; TGI [46]: 15.2 µM; GI50 [47]: 1.67 µM; TGI [47]: 3.31 µM; GI50 [48]: 2.64 µM; TGI [48]: 9.52 µM; GI50 [49]: 1.78 µM; TGI [49]: 4.71 µM; GI50 [50]: 2.19 µM; TGI [50]: 8.24 µM; GI50 [51]: 2.27 µM; TGI [51]: 11.1 µM; GI50 [52]: 1.76 µM; TGI [52]: 3.72 µM; GI50 [53]: 4.25 µM; TGI [53]: 15.8 µM; GI50 [54]: 2.22 µM; TGI [54]: 7.52 µM; GI50 [55]: 1.88 µM; TGI [55]: 3.68 µM; GI50 [56]: 2.11 µM; TGI [56]: 10.1 µM; GI50 [57]: 1.99 µM; TGI [57]: 6.32 µM

Question: Which results are given for `O=c1oc2ccccc2nc1/C=C(\O)c1ccc([N+](=O)[O-])cc1`?
Answer: TGI [1]: > 100 µM; TGI [2]: > 100 µM; TGI [3]: > 100 µM; TGI [4]: > 100 µM; TGI [5]: > 100 µM; TGI [6]: > 100 µM; TGI [8]: > 100 µM; TGI [9]: > 100 µM; TGI [10]: > 100 µM; TGI [11]: > 100 µM; TGI [12]: > 100 µM; TGI [13]: > 100 µM; TGI [14]: > 100 µM; TGI [15]: > 100 µM; TGI [16]: > 100 µM; TGI [17]: > 100 µM; TGI [18]: > 100 µM; TGI [19]: > 100 µM; TGI [20]: > 100 µM; TGI [21]: > 100 µM; TGI [22]: > 100 µM; TGI [23]: > 100 µM; TGI [24]: > 100 µM; TGI [25]: > 100 µM; TGI [26]: > 100 µM; TGI [27]: > 100 µM; TGI [28]: > 100 µM; TGI [29]: > 100 µM; TGI [30]: > 100 µM; TGI [31]: > 100 µM; TGI [32]: > 100 µM; TGI [33]: > 100 µM; TGI [35]: > 100 µM; TGI [36]: > 100 µM; TGI [37]: > 100 µM; TGI [38]: > 100 µM; TGI [40]: > 100 µM; TGI [41]: > 100 µM; TGI [42]: > 100 µM; TGI [43]: > 100 µM; TGI [44]: 95.1 µM; TGI [45]: > 100 µM; TGI [46]: > 100 µM; TGI [48]: > 100 µM; TGI [49]: > 100 µM; TGI [50]: > 100 µM; TGI [51]: > 100 µM; TGI [52]: > 100 µM; TGI [53]: > 100 µM; TGI [54]: > 100 µM; TGI [56]: > 100 µM; TGI [57]: > 100 µM
